Patent US20260001889A1, “COMPOSITIONS USEFUL FOR MODULATING SPLICING” (Skyhawk Therapeutics, Inc., priority 2022, published 2026)

These molecules were tested on ATXN3-HiBiT protein (assay: ATXN3 Total Protein Assay (Kelly-ATXN3-HiBiT luminescence)). Details: Kelly-ATXN3-HiBiT cells, 48 h after addition of compound.
Type: cell-based
Excerpt: Example 36: ATXN3 Total Protein Assay
To monitor ATXN3 protein levels by luminescence, a Kelly-ATXN3-HiBiT cell line with homozygous knock-in of HiBiT at the C-terminus of the endogenous ATXN3 gene was used (knock-in of the HiBiT-tag coding sequence SEQ ID NO. 14: 5′[…]3′ into exon 11 of ATXN3-position 1114 of ATXN3 RefSeq NM_004993.6). Manipulations of the Kelly-ATXN3-HiBiT cell line that result in downregulation of the ATXN3-HiBiT protein (through modulation of ATXN3-HiBiT pre-mRNA splicing) can be followed by monitoring the luminescence signal of the HiBiT tag using the Nano Glo HiBiT Lytic Detection System (Promega, #N3050). Kelly-ATXN3-HiBiT cells were maintained in RPMI 1640 w/Glutamax (Gibco, #61870010), 10% FBS (Sigma Aldrich, #F8687), 1% Penicillin/Streptomycin (Gibco, #15140-122) at 37° C., 5% CO2. To assess HiBiT-luminescence signal upon compound treatment, 2000 Kelly-ATXN3-HiBiT cells were seeded per well in 384 plate format. Compounds were added 24 h after seeding. ATXN3-HiBiT-luminescence signal was read out 48 h after addition of the compound using the Nano Glo HiBiT Lytic Detection System (Promega, #N3050) according to the manufacturer's instructions. To control for cell viability, an identically prepared sister plate was read out with the CellTiter-Glo® 2.0 Assay (Promega, #G9243) according to the manufacturer's instructions. Fold changes of ATXN3-HiBiT-luminescence and of CellTiter-Glo viability signals were calculated relative to a DMSO control condition.

SMILES | EC50 [nM]
[2H]C([2H])([2H])[C@H](N)Cc1oc2c(NCc3cccs3)cc(Cl)nc2c1C#C [Compound 270, 2-[(S)-2-amino(3,3,3-^2H3)propyl]-5-chloro-3-ethynyl-7-thenylamino-1-oxa-4-azaindene] | 0.01 to 100
[2H]C([2H])([2H])[C@@H](N)Cc1oc2c(NCc3cccs3)cc(Cl)nc2c1C#C [Compound 271, 2-[(R)-2-amino(3,3,3-^2H3)propyl]-5-chloro-3-ethynyl-7-thenylamino-1-oxa-4-azaindene] | 101 to 500
[2H]C([2H])([2H])OCC[C@H](N)Cc1oc2c(NCc3cccs3)cc(Cl)nc2c1Cl [Compound 273, 2-[(S)-2-amino-4-(^2H3)methoxybutyl]-3,5-dichloro-7-thenylamino-1-oxa-4-azaindene] | 101 to 500
COCC[C@H](N)Cc1oc2c(NCc3cccs3)cc(Cl)nc2c1Cl [Compound 274, 2-[(S)-2-amino-4-methoxybutyl]-3,5-dichloro-7-thenylamino-1-oxa-4-azaindene] | 101 to 500
Clc1cc(NCc2cccs2)c2occ(Br)c2n1 [Compound 279, (thenyl)(3-bromo-5-chloro-1-oxa-4-aza-7-indenyl)amine] | 101 to 500
Clc1cc(NCc2ccncc2)c2occ(Br)c2n1 [Compound 280, [(4-pyridyl)methyl](3-bromo-5-chloro-1-oxa-4-aza-7-indenyl)amine] | 10000 to 40000
C#Cc1c(C[C@@H](N)CC2(O)CC2)oc2c(NCc3cccs3)cc(Cl)nc12 [Compound 281, 1-[(2S)-2-amino-3-{5-chloro-3-ethynyl-7-[(thiophen-2-ylmethyl)amino]furo[3,2-b]pyridin-2-yl}propyl]cyclopropan-1-ol] | 501 to 5000
[2H]C([2H])([2H])OC[C@]([2H])(N)Cc1oc2c(NCc3cccs3)cc(Cl)nc2c1Cl [Compound 282, 2-[(R)-2-amino-3-(^2H3)methoxy(2-2H)propyl]-3,5-dichloro-7-thenylamino-1-oxa-4-azaindene] | 0.01 to 100
[2H][C@](N)(COC)Cc1oc2c(NCc3cccs3)cc(Cl)nc2c1Cl [Compound 283, 2-[(R)-2-amino-3-methoxy(2-^2H)propyl]-3,5-dichloro-7-thenylamino-1-oxa-4-azaindene] | 0.01 to 100
[2H]C([2H])([2H])OC[C@]([2H])(N)Cc1oc2c(NCc3cccs3)cc(Cl)nc2c1Br [Compound 284, 2-[(R)-2-amino-3-(^2H3)methoxy(2-2H)propyl]-3-bromo-5-chloro-7-thenylamino-1-oxa-4-azaindene] | 0.01 to 100
[2H]C([2H])([2H])OC[C@]([2H])(N)Cc1oc2c(NCc3cccs3)cc(Cl)nc2c1C#C [Compound 286, 2-[(R)-2-amino-3-(^2H3)methoxy(2-2H)propyl]-5-chloro-3-ethynyl-7-thenylamino-1-oxa-4-azaindene] | 0.01 to 100
[2H][C@](N)(COC)Cc1oc2c(NCc3cccs3)cc(Cl)nc2c1C#C [Compound 287, 2-[(R)-2-amino-3-methoxy(2-^2H)propyl]-5-chloro-3-ethynyl-7-thenylamino-1-oxa-4-azaindene] | 0.01 to 100
[2H]C([2H])(c1oc2c(NCc3cccs3)cc(Cl)nc2c1Br)[C@H](C)N [Compound 292, 2-[(S)-2-amino(1,1-^2H2)propyl]-3-bromo-5-chloro-7-thenylamino-1-oxa-4-azaindene] | 0.01 to 100
[2H]C([2H])(c1oc2c(NCc3cccs3)cc(Cl)nc2c1Cl)[C@H](C)N [Compound 293, 2-[(S)-2-amino(1,1-^2H2)propyl]-3,5-dichloro-7-thenylamino-1-oxa-4-azaindene] | 0.01 to 100
[2H]C([2H])(OC)[C@H](N)Cc1oc2c(NCc3cccs3)cc(Cl)nc2c1Br [Compound 296, 2-[(R)-2-amino-3-methoxy(3,3- ^2H2)propyl]-3-bromo-5-chloro-7-thenylamino-1-oxa-4-azaindene] | 0.01 to 100
[2H]C([2H])([2H])OC([2H])([2H])[C@H](N)Cc1oc2c(NCc3cccs3)cc(Cl)nc2c1Br [Compound 297, 2-[(R)-2-amino-3-(^2H3)methoxy(3,3- ^2H2)propyl]-3-bromo-5-chloro-7-thenylamino-1-oxa-4-azaindene] | 0.01 to 100
[2H]C([2H])(OC(F)F)[C@H](N)Cc1oc2c(NCc3cccs3)cc(Cl)nc2c1Br [Compound 298, 2-[(R)-2-amino-3-difluoromethoxy(3,3- ^2H2)propyl]-3-bromo-5-chloro-7-thenylamino-1-oxa-4-azaindene] | 0.01 to 100

SMILES | EC50 [nM]
[2H]C([2H])(F)[C@H](N)Cc1oc2c(NCc3cccs3)cc(Cl)nc2c1Br [Compound 299, 2-[(R)-2-amino-3-fluoro(3,3-^2H2)propyl]-3-bromo-5-chloro-7-thenylamino-1-oxa-4-azaindene] | 0.01 to 100
[2H]C([2H])(OC)[C@H](N)Cc1oc2c(NCc3cccs3)cc(Cl)nc2c1C#C [Compound 300, 2-[(R)-2-amino-3-methoxy(3,3- ^2H2)propyl]-5-chloro-3-ethynyl-7-thenylamino-1-oxa-4-azaindene] | 0.01 to 100
[2H]C([2H])([2H])OC([2H])([2H])[C@H](N)Cc1oc2c(NCc3cccs3)cc(Cl)nc2c1C#C [Compound 301, 2-[(R)-2-amino-3-(^2H3)methoxy(3,3- ^2H2)propyl]-5-chloro-3-ethynyl-7-thenylamino-1-oxa-4-azaindene] | 0.01 to 100
[2H]C([2H])(OC(F)F)[C@H](N)Cc1oc2c(NCc3cccs3)cc(Cl)nc2c1C#C [Compound 302, 2-[(R)-2-amino-3-difluoromethoxy(3,3- ^2H2)propyl]-5-chloro-3-ethynyl-7-thenylamino-1-oxa-4-azaindene] | 0.01 to 100
[2H]C([2H])(c1oc2c(NCc3cccs3)cc(Cl)nc2c1Br)[C@@H](N)CF [Compound 305, 2-[(R)-2-amino-3-fluoro(1,1-^2H2)propyl]-3-bromo-5-chloro-7-thenylamino-1-oxa-4-azaindene] | 0.01 to 100
[2H]C([2H])([2H])OCC[C@H](N)Cc1oc2c(NCc3cccs3)cc(Cl)nc2c1C#C [Compound 320, 2-[(S)-2-amino-4-(^2H3)methoxybutyl]-5-chloro-3-ethynyl-7-thenylamino-1-oxa-4-azaindene] | 0.01 to 100
[2H]C([2H])(c1oc2c(NCc3cccs3)cc(Cl)nc2c1C#C)[C@H](C)N [Compound 327, 2-[(S)-2-amino(1,1-^2H2)propyl]-5-chloro-3-ethynyl-7-thenylamino-1-oxa-4-azaindene] | 0.01 to 100
[2H]C([2H])(c1oc2c(NCc3cccs3)cc(Cl)nc2c1C#C)[C@@H](N)COC [Compound 330, 2-[(R)-2-amino-3-methoxy(1,1- ^2H2)propyl]-5-chloro-3-ethynyl-7-thenylamino-1-oxa-4-azaindene] | 0.01 to 100
[2H]C([2H])(c1oc2c(NCc3cccs3)cc(Cl)nc2c1C#C)[C@@H](N)CF [Compound 335, 2-[(R)-2-amino-3-fluoro(1,1-^2H2)propyl]-5-chloro-3-ethynyl-7-thenylamino-1-oxa-4-azaindene] | 0.01 to 100
[2H]C([2H])(c1oc2c(NCc3cccs3)cc(Cl)nc2c1Cl)[C@@H](N)CF [Compound 336, 2-[(R)-2-amino-3-fluoro(1,1-^2H2)propyl]-3,5-dichloro-7-thenylamino-1-oxa-4-azaindene] | 0.01 to 100
COc1ccccc1CNc1cc(Cl)nc2c(Br)c(C[C@H](C)N)oc12 [Compound 337, 2-[(S)-2-aminopropyl]-3-bromo-5-chloro-7-{[(o-methoxyphenyl)methyl]amino}-1-oxa-4-azaindene] | 10000 to 40000
C[C@H](N)Cc1oc2c(NCc3ccc(C#N)cc3)cc(Cl)nc2c1Br [Compound 339, p-({2-[(S)-2-aminopropyl]-3-bromo-5-chloro-1-oxa-4-aza-7-indenylamino}methyl)benzonitrile] | 10000 to 40000
C[C@H](N)Cc1oc2c(NCc3ccc(F)cn3)cc(Cl)nc2c1Br [Compound 341, 2-[(S)-2-aminopropyl]-3-bromo-5-chloro-7-{[(5-fluoro-2-pyridyl)methyl]amino}-1-oxa-4-azaindene] | 5000 to 10000
C[C@H](N)Cc1oc2c(NCc3ccncc3F)cc(Cl)nc2c1Br [Compound 342, 2-[(S)-2-aminopropyl]-3-bromo-5-chloro-7-{[(3-fluoro-4-pyridyl)methyl]amino}-1-oxa-4-azaindene] | 101 to 500
COc1cc(CNc2cc(Cl)nc3c(Br)c(C[C@H](C)N)oc23)ccc1F [Compound 343, 2-[(S)-2-aminopropyl]-3-bromo-5-chloro-7-{[(4-fluoro-3-methoxyphenyl)methyl]amino}-1-oxa-4-azaindene] | 501 to 5000
O=C(O)c1oc2c(NCc3cccs3)cc(Cl)nc2c1Br [Compound 347, 3-bromo-5-chloro-7-thenylamino-1-oxa-4-aza-2-indenecarboxylic acid] | 10000 to 40000
COc1cccc(CNc2cc(Cl)nc3c(Br)c(C[C@H](C)N)oc23)n1 [Compound 348, 2-[(S)-2-aminopropyl]-3-bromo-5-chloro-7-{[(6-methoxy-2-pyridyl)methyl]amino}-1-oxa-4-azaindene] | 10000 to 40000
